This passage reports IC50 results from ChEMBL document CHEMBL1777786, “Synthesis of cholestane saponins as mimics of OSW-1 and their cytotoxic activities” (Bioorg Med Chem Lett, 2011).

Format in all cases: functional, cell-based
For one assay, the system named is A2780. Put plainly: Cytotoxicity against human A2780 cells after 72 hrs by MTT assay. To be noted: A2780, 72 h.
Another assay relates to Bel-7402. The assay can be described thus: Cytotoxicity against human Bel7402 cells after 72 hrs by MTT assay. To be noted: Bel-7402, 72 h.
The subject of another assay is BGC-823. Put plainly: Cytotoxicity against human BGC823 cells after 72 hrs by MTT assay. To be noted: BGC-823, 72 h.
A further assay concerns HCT-8. Put plainly: Cytotoxicity against human HCT8 cells after 72 hrs by MTT assay. To be noted: HCT-8, 72 h.
In a further assay the test system is A549. Put plainly: Cytotoxicity against human A549 cells after 72 hrs by MTT assay. To be noted: A549, 72 h.

Bounds are passed on as bounds.

With `COc1ccc(C(=O)O[C@H]2[C@H](O[C@@H]3[C@@H](OC(C)=O)[C@H](O[C@H]4C=C5C[C@@H](O)CC[C@]5(C)[C@H]5CC[C@]6(C)[C@@H]([C@H](C)CCC[C@@H](C)CO)CC[C@H]6[C@H]45)OC[C@@H]3O)OC[C@@H](O)[C@@H]2O)cc1`, the IC50 in the assay on A2780, with Bel-7402, in the assay with BGC-823, in the assay with HCT-8 and with A549 was more than 10000 nM throughout.
Take `CC(=O)O[C@H]1C(=O)[C@@]2(C)[C@H]([C@H](OC(=O)c3ccccc3)[C@]3(O)C[C@H](OC(=O)[C@H](O)[C@@H](NC(=O)c4ccccc4)c4ccccc4)C(C)=C1C3(C)C)[C@]1(OC(C)=O)CO[C@@H]1C[C@@H]2O` [PACLITAXEL]: the IC50 with A2780 was less than 1 nM; with Bel-7402 it was 6 nM; in the assay on BGC-823 it was less than 1 nM.
Turning to `COc1ccc(C(=O)O[C@H]2[C@H](O[C@H]3CO[C@@H](O[C@H]4C[C@H]5[C@@H]6CC=C7C[C@@H](O)CC[C@]7(C)[C@H]6CC[C@]5(C)[C@H]4[C@H](C)CCC[C@@H](C)CO)[C@H](OC(C)=O)[C@H]3O)OC[C@@H](O)[C@@H]2O)cc1`, the IC50 in the assay with A2780, in the assay on Bel-7402, with BGC-823, in the assay with HCT-8 and in the assay with A549 was more than 10000 nM in each case.
For the molecule `COc1ccc(C(=O)O[C@H]2[C@H](O[C@@H]3[C@@H](OC(C)=O)[C@H](O[C@H]4C=C5C[C@@H](O)CC[C@]5(C)[C@H]5CC[C@]6(C)[C@@H]([C@H](C)CCC[C@@H](C)CO)[C@@H](O)C[C@H]6[C@H]45)OC[C@@H]3O)OC[C@@H](O)[C@@H]2O)cc1`, the IC50 was found to be 1900 nM with A2780; 50 nM with Bel-7402; 78 nM with BGC-823; 75 nM in the assay on HCT-8; 87 nM in the assay on A549.
With `COc1ccc(C(=O)O[C@H]2[C@H](O[C@@H]3[C@@H](OC(C)=O)[C@H](O[C@H]4C[C@H]5[C@@H]6CC=C7C[C@@H](O)CC[C@]7(C)[C@H]6CC[C@]5(C)[C@H]4[C@H](C)CCC[C@@H](C)CO)OC[C@@H]3O)OC[C@@H](O)[C@@H]2O)cc1`, the IC50 stood at 6 nM with A2780; 23 nM with Bel-7402; 2 nM in the assay on BGC-823; 70 nM in the assay with HCT-8; 9.3 nM in the assay with A549.
The matching figures for `COc1ccc(C(=O)O[C@H]2[C@H](O[C@H]3CO[C@@H](O[C@H]4C=C5C[C@@H](O)CC[C@]5(C)[C@H]5CC[C@]6(C)[C@@H]([C@H](C)CCC[C@@H](C)CO)[C@@H](O)C[C@H]6[C@H]45)[C@H](OC(C)=O)[C@H]3O)OC[C@@H](O)[C@@H]2O)cc1`: more than 10000 nM, more than 10000 nM, more than 10000 nM, more than 10000 nM and more than 10000 nM.
The matching figures for `COc1ccc(C(=O)O[C@H]2[C@H](O[C@H]3CO[C@@H](O[C@H]4C=C5C[C@@H](O)CC[C@]5(C)[C@H]5CC[C@]6(C)[C@@H]([C@H](C)CCC[C@@H](C)CO)CC[C@H]6[C@H]45)[C@H](OC(C)=O)[C@H]3O)OC[C@@H](O)[C@@H]2O)cc1`: more than 10000 nM, more than 10000 nM, more than 10000 nM, more than 10000 nM and more than 10000 nM.
